Data published in patent US12371454B2, “Cyclic peptide compound having Kras inhibitory action” (priority 2019, dated 2025).
Positions of bridges follow the written chain, without caps; N, C: chain ends. Non-standard residues stand in square brackets, D forms with d. Residues, ends and D or L forms follow the SMILES beside them. *: point of attachment. hPhe(3-Cl-4-CF3) = N[C@@H](CCc1ccc(C(F)(F)F)c(Cl)c1)C(=O)O; hPhe(3-F,4-CF3) = N[C@@H](CCc1ccc(C(F)(F)F)c(F)c1)C(=O)O; NMePhe(4-CF3) = CN[C@@H](Cc1ccc(C(F)(F)F)cc1)C(=O)O; hPhe(4-CF3) = N[C@@H](CCc1ccc(C(F)(F)F)cc1)C(=O)O; NMePhe(4-Me) = CN[C@@H](Cc1ccc(C)cc1)C(=O)O; NMeNle(6-CHF2) = CN[C@@H](CCCCC(F)F)C(=O)O; NMeGly(cPent) = CN[C@H](C(=O)O)C1CCCC1; NMeCha = CN[C@@H](CC1CCCCC1)C(=O)O; NMeD = CN[C@@H](CC(=O)O)C(=O)O; NMeL = CN[C@@H](CC(C)C)C(=O)O; Chg = N[C@H](C(=O)O)C1CCCCC1; NMeNle = CCCC[C@H](NC)C(=O)O; NMeV = CN[C@H](C(=O)O)C(C)C; d(β3hA) = C[C@@H](N)CC(=O)O; NMeS = CN[C@@H](CO)C(=O)O; NMeA = CN[C@@H](C)C(=O)O; Piperidide = C1CCN(*)CC1; Pra = C#CC[C@H](N)C(=O)O; dNMeA = CN[C@H](C)C(=O)O; Ac5c = NC1(C(=O)O)CCCC1; Aze = O=C(O)[C@@H]1CCN1; CH2CMe2OH = CC(C)(O)C*; Aib = CC(C)(N)C(=O)O; Isopentyl = CC(C)CC*; NEtG = CCNCC(=O)O; Sar = CNCC(=O)O

These compounds were tested against T1, Kras and SOS1 (biotin-tagged human Kras loaded with GDP, His-tagged human SOS1) (Homo sapiens, UniProt P01116, G12D) (assay: Protein-protein interaction inhibition between Kras and SOS1 (KrasGl2D-SOS PPI) using AlphaScreen). Conditions: AlphaScreen; biotin-tagged human Kras loaded with GDP, His-tagged human SOS1; read-out: KRAS G12D-SOS PPI IC50.
T1 construct: made in house; host or cells: E. coli (stated for Kras only)
Format: binding
Method in brief: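 Donor beads (nickel) hold His-SOS1; acceptor beads (streptavidin) hold biotin-Kras bound to GDP. Signal measured at 520-620 nm following 680 nm excitation.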

T1 sequence (P01116 1-188 isoform P01116-2 G12D): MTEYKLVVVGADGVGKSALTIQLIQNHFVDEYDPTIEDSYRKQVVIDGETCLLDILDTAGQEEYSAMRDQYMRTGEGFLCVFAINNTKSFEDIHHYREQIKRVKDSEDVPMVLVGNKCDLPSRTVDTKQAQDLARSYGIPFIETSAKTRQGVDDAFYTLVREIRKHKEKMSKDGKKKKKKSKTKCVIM

Row | Compound | IC50 [nM]
1 | CCCC[C@H]1C(=O)N[C@H](C)CC(=O)N(C)[C@@H](CC(C)C)C(=O)N[C@@H]([C@@H](C)CC)C(=O)N(C)CC(=O)N(C)CC(=O)N(C)[C@@H](CC2CCCCC2)C(=O)N(C)CC(=O)N[C@@H](CCc2ccc(C(F)(F)F)c(F)c2)C(=O)N2CCC[C@H]2C(=O)NC2(CCCC2)C(=O)N1C [Compound 1518] (cyclo([Ac5c][NMeNle][d(β3hA)][NMeL]I[Sar][Sar][NMeCha][Sar][hPhe(3-F,4-CF3)]P)) | 370
2 | CC[C@H](C)[C@@H]1NC(=O)[C@H](C)N(C)C(=O)C[C@@H](C)NC(=O)[C@H](C2CCCC2)N(C)C(=O)C2(CCCC2)NC(=O)[C@@H]2CCCN2C(=O)[C@H](CCc2ccc(C(F)(F)F)c(Cl)c2)NC(=O)[C@@H](C)N(C)C(=O)[C@H](Cc2ccc(C(F)(F)F)cc2)N(C)C(=O)CN(C)C(=O)CN(C)C1=O [Compound 1520] (cyclo([Ac5c][NMeGly(cPent)][d(β3hA)][NMeA]I[Sar][Sar][NMePhe(4-CF3)][dNMeA][hPhe(3-Cl-4-CF3)]P)) | 59
3 | CC[C@H](C)[C@@H]1NC(=O)[C@H](CC(C)C)N(C)C(=O)C[C@@H](C)NC(=O)[C@H](C2CCCC2)N(C)C(=O)C2(CCCC2)NC(=O)[C@@H]2CCCN2C(=O)[C@H](CCc2ccc(C(F)(F)F)c(Cl)c2)NC(=O)[C@@H](C)N(C)C(=O)[C@H](Cc2ccc(C)cc2)N(C)C(=O)CN(C)C(=O)CN(C)C1=O [Compound 1521] (cyclo([Ac5c][NMeGly(cPent)][d(β3hA)][NMeL]I[Sar][Sar][NMePhe(4-Me)][dNMeA][hPhe(3-Cl-4-CF3)]P)) | 110
4 | CC[C@H](C)[C@@H]1NC(=O)[C@H](C)N(C)C(=O)C[C@@H](C)NC(=O)[C@H](C2CCCC2)N(C)C(=O)C2(CCCC2)NC(=O)[C@@H]2CCCN2C(=O)[C@H](CCc2ccc(C(F)(F)F)c(Cl)c2)NC(=O)[C@H]2CCCN2C(=O)[C@H](Cc2ccc(C(F)(F)F)cc2)N(C)C(=O)[C@@H]2CCN2C(=O)CN(C)C1=O [Compound 1522] (cyclo([Ac5c][NMeGly(cPent)][d(β3hA)][NMeA]I[Sar][Aze][NMePhe(4-CF3)][dP][hPhe(3-Cl-4-CF3)]P)) | 90
5 | CC[C@H](C)[C@@H]1NC(=O)[C@H](CC(C)C)N(C)C(=O)C[C@@H](C)NC(=O)[C@H](CC(C)C)N(C)C(=O)C(C)(C)NC(=O)[C@H](CC(C)C)N(C)C(=O)[C@H](CCc2ccc(C(F)(F)F)c(F)c2)NC(=O)CN(C)C(=O)[C@H](CCCCC(F)F)N(C)C(=O)CN(C)C(=O)CN(C)C1=O [Compound 1526] (cyclo([Aib][NMeL][d(β3hA)][NMeL]I[Sar][Sar][NMeNle(6-CHF2)][Sar][hPhe(3-F,4-CF3)][NMeL])) | 100
6 | CC(C)C[C@H]1C(=O)N[C@@H](C2CCCCC2)C(=O)N(C)CC(=O)N(C)CC(=O)N(C)[C@@H](CC2CCCCC2)C(=O)N(C)CC(=O)N[C@@H](CCc2ccc(C(F)(F)F)c(F)c2)C(=O)N2CCC[C@H]2C(=O)NC2(CCCC2)C(=O)N(C)[C@@H](CC(C)C)C(=O)N[C@H](C)CC(=O)N1C [Compound 1527] (cyclo([Ac5c][NMeL][d(β3hA)][NMeL][Chg][Sar][Sar][NMeCha][Sar][hPhe(3-F,4-CF3)]P)) | 190
7 | CC[C@H](C)[C@@H]1NC(=O)[C@H](CC(C)C)N(C)C(=O)C[C@@H](C(=O)N2CCCCC2)N(C)C(=O)[C@H](CC(C)C)N(C)C(=O)C(C)(C)NC(=O)[C@H](COCC(C)(C)O)N(C)C(=O)[C@H](CCc2ccc(C(F)(F)F)cc2)NC(=O)CN(C)C(=O)[C@H](COCCC(C)C)N(C)C(=O)CN(C)C(=O)CN(CC)C1=O [Compound 1528] ([NMeL]I[NEtG][Sar][NMeS](Isopentyl)[Sar][hPhe(4-CF3)][NMeS](CH2CMe2OH)[Aib][NMeL][NMeD]-Piperidide; lactam N-11) | 41
8 | CC[C@H](C)[C@@H]1NC(=O)[C@H](CC(C)C)N(C)C(=O)C[C@@H](C)NC(=O)[C@H](C2CCCC2)N(C)C(=O)C2(CCCC2)NC(=O)[C@@H]2CCCN2C(=O)[C@H](CCc2ccc(C(F)(F)F)c(Cl)c2)NC(=O)[C@@H](C)N(C)C(=O)[C@H](CC2CCCCC2)N(C)C(=O)CN(C)C(=O)CN(C)C1=O [Compound 1530] (cyclo([Ac5c][NMeGly(cPent)][d(β3hA)][NMeL]I[Sar][Sar][NMeCha][dNMeA][hPhe(3-Cl-4-CF3)]P)) | 130
9 | CC[C@H](C)[C@@H]1NC(=O)[C@H](CC(C)C)N(C)C(=O)C[C@@H](C(=O)N2CCCCC2)N(C)C(=O)[C@H](CC(C)C)N(C)C(=O)C(C)(C)NC(=O)[C@H](COCC(C)(C)O)N(C)C(=O)[C@H](CCc2ccc(C(F)(F)F)c(F)c2)NC(=O)CN(C)C(=O)[C@H](COCCC(C)C)N(C)C(=O)CN(C)C(=O)CN(C)C1=O [Compound 1532] ([NMeL]I[Sar][Sar][NMeS](Isopentyl)[Sar][hPhe(3-F,4-CF3)][NMeS](CH2CMe2OH)[Aib][NMeL][NMeD]-Piperidide; lactam N-11) | 4.8
10 | C#CC[C@@H]1NC(=O)[C@H](CC(C)C)N(C)C(=O)C[C@@H](C)NC(=O)[C@H](CC(C)C)N(C)C(=O)C2(CCCC2)NC(=O)[C@@H]2CCCN2C(=O)[C@H](CCc2ccc(C(F)(F)F)c(F)c2)NC(=O)CN(C)C(=O)[C@H](CC2CCCCC2)N(C)C(=O)CN(C)C(=O)CN(C)C1=O [Compound 1533] (cyclo([Ac5c][NMeL][d(β3hA)][NMeL][Pra][Sar][Sar][NMeCha][Sar][hPhe(3-F,4-CF3)]P)) | 68
11 | CC[C@H](C)[C@@H]1NC(=O)[C@H](CC(C)C)N(C)C(=O)C[C@@H](C)NC(=O)[C@H](C(C)C)N(C)C(=O)C2(CCCC2)NC(=O)[C@@H]2CCCN2C(=O)[C@H](CCc2ccc(C(F)(F)F)c(F)c2)NC(=O)CN(C)C(=O)[C@H](CC2CCCCC2)N(C)C(=O)CN(C)C(=O)CN(C)C1=O [Compound 1534] (cyclo([Ac5c][NMeV][d(β3hA)][NMeL]I[Sar][Sar][NMeCha][Sar][hPhe(3-F,4-CF3)]P)) | 62
12 | CC[C@H](C)[C@@H]1NC(=O)[C@H](C)N(C)C(=O)C[C@@H](C)NC(=O)[C@H](C2CCCC2)N(C)C(=O)C2(CCCC2)NC(=O)[C@@H]2CCCN2C(=O)[C@H](CCc2ccc(C(F)(F)F)c(Cl)c2)NC(=O)[C@@H](C)N(C)C(=O)[C@H](CC2CCCCC2)N(C)C(=O)CN(C)C(=O)CN(C)C1=O [Compound 1535] (cyclo([Ac5c][NMeGly(cPent)][d(β3hA)][NMeA]I[Sar][Sar][NMeCha][dNMeA][hPhe(3-Cl-4-CF3)]P)) | 41
13 | CC[C@H](C)[C@@H]1NC(=O)[C@H](C)N(C)C(=O)C[C@@H](C)NC(=O)[C@H](C2CCCC2)N(C)C(=O)C2(CCCC2)NC(=O)[C@@H]2CCCN2C(=O)[C@H](CCc2ccc(C(F)(F)F)c(Cl)c2)NC(=O)[C@H]2CCCN2C(=O)[C@H](Cc2ccc(C)cc2)N(C)C(=O)[C@@H]2CCN2C(=O)[C@H](C)N(C)C1=O [Compound 1540] (cyclo([Ac5c][NMeGly(cPent)][d(β3hA)][NMeA]I[NMeA][Aze][NMePhe(4-Me)][dP][hPhe(3-Cl-4-CF3)]P)) | 230
14 | CC[C@H](C)[C@@H]1NC(=O)[C@H](CC(C)C)N(C)C(=O)C[C@@H](C(=O)N2CCCCC2)N(C)C(=O)[C@H](CC(C)C)N(C)C(=O)C(C)(C)NC(=O)[C@H](COCC(C)(C)O)N(C)C(=O)[C@H](CCc2ccc(C(F)(F)F)c(Cl)c2)NC(=O)CN(C)C(=O)[C@H](COCCC(C)C)N(C)C(=O)CN(C)C(=O)CN(C)C1=O [Compound 1541] ([NMeL]I[Sar][Sar][NMeS](Isopentyl)[Sar][hPhe(3-Cl-4-CF3)][NMeS](CH2CMe2OH)[Aib][NMeL][NMeD]-Piperidide; lactam N-11) | 4
